# From ChEMBL document CHEMBL1667852, “Isosteric replacement of the Z-enone with haloethyl ketone and E-enone in a resorcylic acid lactone series and biological evaluation” (Bioorg Med Chem Lett, 2011)
# The source made the active and inactive calls. The rule behind the calls is not given here.
# Experiments:
# [1] = biological target: Glycogen synthase kinase-3 alpha (Homo sapiens, UniProt P49840); test: Inhibition of human recombinant GSK3alpha in cell free system after 60 mins
# [2] = biological target: Mitogen-activated protein kinase 7 (Homo sapiens, UniProt Q13164); test: Inhibition of human recombinant ERK5 in cell free system after 90 mins
# [3] = biological target: Glycogen synthase kinase-3 beta (Homo sapiens, UniProt P49841); test: Inhibition of human recombinant GSK3-beta in cell free system after 90 mins
# [4] = system: Jurkat; test: Antiproliferative activity against human Jurkat cells after 24 hrs by celltiter glo assay
# [5] = biological target: Platelet-derived growth factor receptor alpha (Homo sapiens, UniProt P16234); test: Inhibition of human recombinant PDGFRalpha in cell free system after 60 mins
# [6] = biological target: Vascular endothelial growth factor receptor 3 (Homo sapiens, UniProt P35916); test: Inhibition of human recombinant VEGFR3 in cell free system after 90 mins
# [7] = biological target: Mast/stem cell growth factor receptor Kit (Homo sapiens, UniProt P10721); test: Inhibition of human recombinant c-kit kinase in cell free system after 30 mins
# [8] = biological target: Mitogen-activated protein kinase 3 (Homo sapiens, UniProt P27361); test: Inhibition of human recombinant ERK1 expressed in E.coli after 30 mins
# [9] = biological target: Dual specificity mitogen-activated protein kinase kinase 1 (Homo sapiens, UniProt Q02750); test: Inhibition of human recombinant MEK1 expressed in insect cells after 20 mins
# [10] = biological target: Vascular endothelial growth factor receptor 2 (Homo sapiens, UniProt P35968); test: Inhibition of human recombinant VEGFR2 expressed in Sf9 cells after 60 mins
# [11] = biological target: T1, Receptor-type tyrosine-protein kinase FLT3 (Homo sapiens, UniProt P36888); test: Inhibition of human recombinant FLT-3 kinase expressed in insect cells after 90 mins
# T1 sequence (P36888 whole entry): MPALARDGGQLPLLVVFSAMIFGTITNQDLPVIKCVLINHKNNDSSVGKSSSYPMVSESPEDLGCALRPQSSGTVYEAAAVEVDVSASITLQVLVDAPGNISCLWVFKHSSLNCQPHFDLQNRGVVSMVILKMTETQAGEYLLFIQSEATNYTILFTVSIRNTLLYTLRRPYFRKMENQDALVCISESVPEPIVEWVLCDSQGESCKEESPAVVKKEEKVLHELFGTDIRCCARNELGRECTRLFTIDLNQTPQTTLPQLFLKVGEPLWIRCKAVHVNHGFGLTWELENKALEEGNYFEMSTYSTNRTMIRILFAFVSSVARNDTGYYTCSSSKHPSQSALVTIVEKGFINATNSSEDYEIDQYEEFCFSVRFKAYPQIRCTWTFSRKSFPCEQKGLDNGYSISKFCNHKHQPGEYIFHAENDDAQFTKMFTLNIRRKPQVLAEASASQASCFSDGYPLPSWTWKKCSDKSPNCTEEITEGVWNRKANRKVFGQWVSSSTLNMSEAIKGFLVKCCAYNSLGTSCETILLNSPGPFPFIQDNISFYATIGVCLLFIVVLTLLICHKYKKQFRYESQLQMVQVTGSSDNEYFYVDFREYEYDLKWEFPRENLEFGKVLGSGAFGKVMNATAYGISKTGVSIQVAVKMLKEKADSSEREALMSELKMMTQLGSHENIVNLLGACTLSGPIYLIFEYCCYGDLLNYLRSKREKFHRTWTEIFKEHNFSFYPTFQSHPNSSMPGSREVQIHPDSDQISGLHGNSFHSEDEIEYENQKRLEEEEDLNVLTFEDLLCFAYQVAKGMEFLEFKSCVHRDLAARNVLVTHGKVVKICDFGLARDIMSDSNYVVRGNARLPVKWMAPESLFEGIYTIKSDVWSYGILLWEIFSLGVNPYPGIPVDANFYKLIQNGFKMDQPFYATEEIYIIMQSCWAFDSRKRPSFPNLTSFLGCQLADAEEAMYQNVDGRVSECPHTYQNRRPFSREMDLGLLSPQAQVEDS
# [12] = biological target: Vascular endothelial growth factor receptor 1 (Homo sapiens, UniProt P17948); test: Inhibition of human recombinant VEGFR1 expressed in Sf9 cells after 10 mins
# [13] = system: Jurkat; test: Antiproliferative activity against human Jurkat cells after 48 hrs by celltiter glo assay
# [14] = biological target: Mitogen-activated protein kinase 1 (Homo sapiens, UniProt P28482); test: Inhibition of human recombinant ERK2 expressed in E.coli after 15 mins
# [15] = system: HUVEC; test: Antiangiogenic activity against HUVEC co-cultured with vascular smooth muscle cells assessed as inhibition of organotypic capillary network formation upto 100 uM after 72 hrs; format: functional, cell-based; conditions: Homo sapiens
# [16] = system: HUVEC; test: Antiangiogenic activity against HUVEC co-cultured with vascular smooth muscle cells assessed as inhibition of tube formation upto 100 uM after 72 hrs; format: functional, cell-based; conditions: Homo sapiens
# [17] = system: HUVEC; test: Antiangiogenic activity against HUVEC co-cultured with vascular smooth muscle cells assessed as inhibition of organotypic capillary network formation at 33 uM after 72 hrs; format: functional, cell-based; conditions: Homo sapiens
# [18] = system: HUVEC; test: Antiangiogenic activity against HUVEC co-cultured with vascular smooth muscle cells assessed as inhibition of tube formation at 33 uM after 72 hrs; format: functional, cell-based; conditions: Homo sapiens
# [19] = biological target: Platelet-derived growth factor receptor beta (Homo sapiens, UniProt P09619); test: Inhibition of human recombinant PDGFRbeta expressed in insect cells after 30 mins
# [20] = system: HUVEC; test: Antiangiogenic activity against HUVEC co-cultured with vascular smooth muscle cells assessed as inhibition of tube formation at 11 uM after 72 hrs; format: functional, cell-based; conditions: Homo sapiens
# [21] = system: HUVEC; test: Antiangiogenic activity against HUVEC co-cultured with vascular smooth muscle cells assessed as inhibition of organotypic capillary network formation at 11 uM after 72 hrs; format: functional, cell-based; conditions: Homo sapiens
# Chain of Dual specificity mitogen-activated protein kinase kinase 1 (Q02750 whole entry): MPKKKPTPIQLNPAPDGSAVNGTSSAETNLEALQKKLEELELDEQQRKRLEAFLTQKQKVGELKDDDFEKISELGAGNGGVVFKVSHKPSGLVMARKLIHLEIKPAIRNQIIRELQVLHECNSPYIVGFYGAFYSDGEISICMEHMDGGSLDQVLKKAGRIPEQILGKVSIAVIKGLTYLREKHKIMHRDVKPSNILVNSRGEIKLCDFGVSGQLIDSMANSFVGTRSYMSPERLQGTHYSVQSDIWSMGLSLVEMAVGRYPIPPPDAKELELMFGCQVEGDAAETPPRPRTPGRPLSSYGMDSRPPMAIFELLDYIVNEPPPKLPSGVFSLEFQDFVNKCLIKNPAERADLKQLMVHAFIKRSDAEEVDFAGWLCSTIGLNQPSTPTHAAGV
# Chain of Vascular endothelial growth factor receptor 2 (P35968 whole entry): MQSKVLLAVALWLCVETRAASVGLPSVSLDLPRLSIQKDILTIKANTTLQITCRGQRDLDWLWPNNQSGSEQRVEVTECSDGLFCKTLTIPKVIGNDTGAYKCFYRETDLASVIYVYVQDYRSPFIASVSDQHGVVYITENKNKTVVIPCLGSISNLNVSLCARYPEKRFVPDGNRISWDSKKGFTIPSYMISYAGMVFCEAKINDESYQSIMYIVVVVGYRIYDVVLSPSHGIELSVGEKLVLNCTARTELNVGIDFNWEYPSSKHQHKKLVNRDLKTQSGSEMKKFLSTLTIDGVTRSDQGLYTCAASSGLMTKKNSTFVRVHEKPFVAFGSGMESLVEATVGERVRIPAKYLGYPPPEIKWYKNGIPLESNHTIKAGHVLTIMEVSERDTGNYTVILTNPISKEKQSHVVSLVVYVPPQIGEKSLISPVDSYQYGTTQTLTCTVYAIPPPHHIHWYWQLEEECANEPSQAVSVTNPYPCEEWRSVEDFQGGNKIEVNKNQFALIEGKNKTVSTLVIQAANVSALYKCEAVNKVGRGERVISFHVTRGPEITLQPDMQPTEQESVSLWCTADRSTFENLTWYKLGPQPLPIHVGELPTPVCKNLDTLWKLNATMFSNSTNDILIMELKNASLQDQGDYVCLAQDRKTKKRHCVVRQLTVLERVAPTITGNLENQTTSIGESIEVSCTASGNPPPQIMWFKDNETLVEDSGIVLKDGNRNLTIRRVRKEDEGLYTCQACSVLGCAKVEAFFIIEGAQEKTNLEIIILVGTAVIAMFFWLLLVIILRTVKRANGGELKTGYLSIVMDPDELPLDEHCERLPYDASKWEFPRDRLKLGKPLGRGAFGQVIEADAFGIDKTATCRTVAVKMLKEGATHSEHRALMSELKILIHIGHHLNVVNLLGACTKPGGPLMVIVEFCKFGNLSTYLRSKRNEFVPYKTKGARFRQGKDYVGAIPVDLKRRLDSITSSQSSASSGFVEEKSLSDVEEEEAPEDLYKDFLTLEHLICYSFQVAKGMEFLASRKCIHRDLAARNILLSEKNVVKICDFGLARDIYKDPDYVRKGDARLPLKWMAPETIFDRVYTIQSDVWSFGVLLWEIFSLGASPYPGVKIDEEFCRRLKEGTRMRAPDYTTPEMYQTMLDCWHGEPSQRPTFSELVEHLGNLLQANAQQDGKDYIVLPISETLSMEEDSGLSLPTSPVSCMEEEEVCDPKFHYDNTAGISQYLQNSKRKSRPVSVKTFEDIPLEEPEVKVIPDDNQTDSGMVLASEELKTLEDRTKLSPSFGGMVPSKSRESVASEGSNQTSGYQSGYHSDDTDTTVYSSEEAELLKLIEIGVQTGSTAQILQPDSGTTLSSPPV
# Chain of Glycogen synthase kinase-3 alpha (P49840 whole entry): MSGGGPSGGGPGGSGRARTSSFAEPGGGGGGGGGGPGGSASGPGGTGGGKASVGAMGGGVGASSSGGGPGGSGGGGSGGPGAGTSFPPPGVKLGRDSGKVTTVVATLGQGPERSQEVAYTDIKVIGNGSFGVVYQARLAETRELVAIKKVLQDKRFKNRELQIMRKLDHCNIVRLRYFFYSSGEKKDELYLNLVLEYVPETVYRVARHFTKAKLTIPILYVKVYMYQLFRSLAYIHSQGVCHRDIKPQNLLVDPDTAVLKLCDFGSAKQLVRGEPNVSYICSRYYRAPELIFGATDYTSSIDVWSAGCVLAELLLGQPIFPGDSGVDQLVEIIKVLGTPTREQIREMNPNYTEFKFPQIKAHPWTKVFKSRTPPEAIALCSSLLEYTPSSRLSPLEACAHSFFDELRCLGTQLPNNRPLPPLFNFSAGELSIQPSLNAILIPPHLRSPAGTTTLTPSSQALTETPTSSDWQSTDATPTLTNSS
# Chain of Vascular endothelial growth factor receptor 1 (P17948 whole entry): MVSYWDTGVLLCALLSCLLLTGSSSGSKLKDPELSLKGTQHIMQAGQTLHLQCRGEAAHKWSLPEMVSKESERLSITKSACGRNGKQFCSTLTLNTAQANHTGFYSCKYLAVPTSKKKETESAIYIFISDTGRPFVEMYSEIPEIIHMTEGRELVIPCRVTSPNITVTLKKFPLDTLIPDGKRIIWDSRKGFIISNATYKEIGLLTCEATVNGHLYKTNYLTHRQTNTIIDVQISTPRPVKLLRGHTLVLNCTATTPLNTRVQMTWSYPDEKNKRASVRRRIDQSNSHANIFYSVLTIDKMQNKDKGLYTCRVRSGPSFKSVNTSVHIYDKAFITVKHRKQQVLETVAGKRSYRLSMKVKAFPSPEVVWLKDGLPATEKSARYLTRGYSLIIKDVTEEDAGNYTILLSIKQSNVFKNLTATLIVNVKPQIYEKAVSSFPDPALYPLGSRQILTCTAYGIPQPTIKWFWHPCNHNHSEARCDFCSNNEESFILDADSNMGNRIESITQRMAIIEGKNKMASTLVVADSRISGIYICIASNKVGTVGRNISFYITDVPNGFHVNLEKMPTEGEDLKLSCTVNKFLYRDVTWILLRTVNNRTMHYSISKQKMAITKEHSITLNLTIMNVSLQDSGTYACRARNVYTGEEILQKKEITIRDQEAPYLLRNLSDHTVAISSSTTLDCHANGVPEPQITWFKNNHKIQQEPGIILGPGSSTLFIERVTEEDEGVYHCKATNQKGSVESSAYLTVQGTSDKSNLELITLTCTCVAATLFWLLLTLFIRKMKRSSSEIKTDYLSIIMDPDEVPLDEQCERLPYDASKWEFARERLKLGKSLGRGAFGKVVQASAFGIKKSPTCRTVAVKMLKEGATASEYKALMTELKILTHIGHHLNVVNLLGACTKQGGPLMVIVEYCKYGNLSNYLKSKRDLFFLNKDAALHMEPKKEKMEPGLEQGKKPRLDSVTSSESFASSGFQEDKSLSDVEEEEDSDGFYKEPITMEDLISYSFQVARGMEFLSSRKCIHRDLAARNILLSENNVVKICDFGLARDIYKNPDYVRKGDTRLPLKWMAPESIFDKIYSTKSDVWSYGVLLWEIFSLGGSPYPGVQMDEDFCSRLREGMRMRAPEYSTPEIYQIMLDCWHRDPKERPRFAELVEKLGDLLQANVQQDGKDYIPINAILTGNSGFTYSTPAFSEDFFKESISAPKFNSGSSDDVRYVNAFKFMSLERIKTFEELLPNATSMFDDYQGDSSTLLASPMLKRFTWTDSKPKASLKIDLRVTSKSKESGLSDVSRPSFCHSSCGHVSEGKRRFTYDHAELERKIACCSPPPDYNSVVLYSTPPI
# Chain of Mitogen-activated protein kinase 1 (P28482 whole entry): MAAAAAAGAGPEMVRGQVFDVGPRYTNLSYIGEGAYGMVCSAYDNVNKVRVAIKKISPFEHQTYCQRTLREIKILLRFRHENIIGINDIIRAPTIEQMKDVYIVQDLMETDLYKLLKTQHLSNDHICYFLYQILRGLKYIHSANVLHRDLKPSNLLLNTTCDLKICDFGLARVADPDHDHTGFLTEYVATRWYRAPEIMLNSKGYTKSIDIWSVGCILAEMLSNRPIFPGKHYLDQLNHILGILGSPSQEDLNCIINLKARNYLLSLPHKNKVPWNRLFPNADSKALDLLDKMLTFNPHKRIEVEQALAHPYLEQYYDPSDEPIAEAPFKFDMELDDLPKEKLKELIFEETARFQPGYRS
# Chain of Mitogen-activated protein kinase 3 (P27361 whole entry): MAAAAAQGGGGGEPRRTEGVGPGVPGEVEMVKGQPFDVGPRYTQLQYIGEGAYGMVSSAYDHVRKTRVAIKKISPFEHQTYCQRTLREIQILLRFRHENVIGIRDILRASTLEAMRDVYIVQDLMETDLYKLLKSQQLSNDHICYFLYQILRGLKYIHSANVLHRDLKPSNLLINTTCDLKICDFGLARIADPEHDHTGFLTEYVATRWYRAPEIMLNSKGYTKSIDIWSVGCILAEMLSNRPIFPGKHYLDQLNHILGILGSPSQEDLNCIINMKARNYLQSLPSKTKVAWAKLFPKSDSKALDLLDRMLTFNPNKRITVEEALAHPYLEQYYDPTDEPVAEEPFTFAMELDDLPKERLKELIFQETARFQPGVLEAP
# Chain of Glycogen synthase kinase-3 beta (P49841 whole entry): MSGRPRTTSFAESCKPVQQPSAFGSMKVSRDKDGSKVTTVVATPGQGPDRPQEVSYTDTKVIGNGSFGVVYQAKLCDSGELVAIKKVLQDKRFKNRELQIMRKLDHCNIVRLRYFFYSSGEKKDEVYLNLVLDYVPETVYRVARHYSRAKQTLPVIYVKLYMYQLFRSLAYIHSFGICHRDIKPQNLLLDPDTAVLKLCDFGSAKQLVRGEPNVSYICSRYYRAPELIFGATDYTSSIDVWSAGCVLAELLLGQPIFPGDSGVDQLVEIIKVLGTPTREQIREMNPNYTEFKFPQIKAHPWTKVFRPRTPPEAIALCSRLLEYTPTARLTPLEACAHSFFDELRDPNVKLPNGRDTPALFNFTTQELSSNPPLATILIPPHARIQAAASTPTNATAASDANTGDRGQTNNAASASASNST
Structure (SMILES),IC50 [4],IC50 [5],IC50 [6],IC50 [7],IC50 [9],IC50 [10],IC50 [11],IC50 [12],IC50 [13],also measured
COc1cc(O)c2c(c1)/C=C/C[C@@H](O)[C@H](O)C(=O)/C=C\C[C@H](C)OC2=O,7 µM,0.00024 µM,0.0005 µM,0.0096 µM,0.002 µM,0.00049 µM,0.0049 µM,0.012 µM,5.5 µM,IC50 [1]: 1.9 µM; IC50 [2]: > 100 µM; IC50 [3]: 18 µM; IC50 [8]: 1.4 µM; IC50 [14]: 1.3 µM
COc1cc(O)c2c(c1)CCCCCC(=O)C[C@H](Cl)C[C@H](C)OC2=O,10.6 µM,–,–,47 µM,–,93 µM,–,–,8.4 µM,–
COc1cc(O)c2c(c1)/C=C\CCCC(=O)C[C@H](Br)C[C@H](C)OC2=O,6.1 µM,–,–,81 µM,–,24 µM,–,–,7.5 µM,–
COc1cc(O)c2c(c1)CCCCCC(=O)/C=C\C[C@H](C)OC2=O,26 µM,0.44 µM,1.2 µM,4.1 µM,17 µM,0.54 µM,0.85 µM,> 100 µM,11 µM,–
COc1cc(O)c2c(c1)CCCCCC(=O)CCC[C@H](C)OC2=O,–,–,–,–,–,–,–,–,–,Activity [15]: inactive; Activity [16]: inactive
COc1cc(O)c2c(c1)/C=C\CCCC(=O)C[C@H](Cl)C[C@H](C)OC2=O,9.5 µM,–,> 100 µM,100 µM,–,82 µM,–,–,8.8 µM,–
COc1cc(O)c2c(c1)/C=C/CCCC(O)C[C@H](Cl)C[C@H](C)OC2=O (some centres not stated),–,–,–,–,–,–,–,–,–,Activity [17]: Active; Activity [18]: Active
COc1cc(O)c2c(c1)/C=C/CCCC(=O)C[C@H](Br)C[C@H](C)OC2=O,11.7 µM,–,–,2.8 µM,–,> 100 µM,–,–,9.7 µM,IC50 [19]: > 100 µM
COc1cc(O)c2c(c1)/C=C/CCCC(=O)/C=C/C[C@H](C)OC2=O,11 µM,0.027 µM,1.4 µM,1.3 µM,22 µM,1 µM,0.33 µM,51 µM,8.9 µM,IC50 [1]: > 100 µM; IC50 [3]: > 100 µM; IC50 [8]: > 100 µM; IC50 [19]: 9.2 µM; IC50 [14]: > 100 µM
COc1cc(O)c2c(c1)CCCCCC(=O)C[C@H](Br)C[C@H](C)OC2=O,11.4 µM,–,–,11 µM,–,4.3 µM,–,> 100 µM,9.7 µM,–
COc1cc(O)c2c(c1)/C=C\CCCC(=O)/C=C/C[C@H](C)OC2=O,19.5 µM,0.45 µM,1.6 µM,1.4 µM,> 100 µM,2.3 µM,0.59 µM,15 µM,15.4 µM,IC50 [19]: > 100 µM
COc1cc(O)c2c(c1)/C=C/CCCC(=O)C[C@H](Cl)C[C@H](C)OC2=O,10.9 µM,–,> 100 µM,> 100 µM,–,–,–,–,9.2 µM,–
COc1cc(O)c2c(c1)CCCCCC(=O)/C=C/C[C@H](C)OC2=O,13 µM,0.089 µM,0.72 µM,1.3 µM,12 µM,0.31 µM,0.33 µM,33 µM,9.7 µM,IC50 [1]: > 100 µM; Activity [20]: Active; Activity [21]: Active; IC50 [8]: > 100 µM; IC50 [14]: > 100 µM
